The target of one assay is T1, MavL40-404 (Legionella pneumophila, UniProt Q5ZSJ1).
T1 construct: gene lpg2526

For a further assay, the target named is T2, LnaB (Legionella pneumophila, UniProt Q5ZSJ0).
T2 construct: gene lpg2527
In words: biochemical.

For orientation: Kd means the constant that tells how readily two partners part at equilibrium. Low values mean tighter binding, high ones weaker binding.

T1 sequence (Q5ZSJ1 40-404 limits assumed): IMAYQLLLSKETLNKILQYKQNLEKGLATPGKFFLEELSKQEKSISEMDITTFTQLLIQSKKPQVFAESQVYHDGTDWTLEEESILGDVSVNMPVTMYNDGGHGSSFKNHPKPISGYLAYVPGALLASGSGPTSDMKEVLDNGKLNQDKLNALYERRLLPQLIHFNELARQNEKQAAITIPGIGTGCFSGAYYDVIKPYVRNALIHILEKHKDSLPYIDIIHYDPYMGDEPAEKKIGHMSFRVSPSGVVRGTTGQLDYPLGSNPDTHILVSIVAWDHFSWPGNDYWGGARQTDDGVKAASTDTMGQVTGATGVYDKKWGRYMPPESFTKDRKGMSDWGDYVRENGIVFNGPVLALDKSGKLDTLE
T2 sequence (Q5ZSJ0 1-558 limits assumed): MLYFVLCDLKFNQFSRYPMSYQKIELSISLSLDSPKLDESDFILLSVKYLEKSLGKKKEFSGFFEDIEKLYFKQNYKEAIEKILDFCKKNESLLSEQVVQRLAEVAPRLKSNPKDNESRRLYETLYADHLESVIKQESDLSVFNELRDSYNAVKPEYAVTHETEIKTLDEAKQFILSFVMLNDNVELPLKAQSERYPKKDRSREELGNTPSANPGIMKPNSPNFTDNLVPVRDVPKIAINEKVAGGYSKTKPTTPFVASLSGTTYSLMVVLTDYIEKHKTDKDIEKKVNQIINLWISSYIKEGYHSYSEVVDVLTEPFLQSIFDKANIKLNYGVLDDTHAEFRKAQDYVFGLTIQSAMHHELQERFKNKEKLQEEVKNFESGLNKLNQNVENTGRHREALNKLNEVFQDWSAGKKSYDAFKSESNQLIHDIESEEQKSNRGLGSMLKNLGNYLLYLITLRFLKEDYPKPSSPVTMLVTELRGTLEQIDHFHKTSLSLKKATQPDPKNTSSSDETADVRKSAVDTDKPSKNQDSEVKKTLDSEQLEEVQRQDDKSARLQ

Compound `Nc1ncnc2c1ncn2[C@@H]1O[C@H](COP(=O)(O)OP(=O)(O)OC[C@H]2OC(O)[C@H](O)[C@@H]2O)[C@@H](O)[C@H]1O` (some centres unmarked) [ADPR] registered a Kd at MavL40-404 of 25 ± 3.24 µM.

For `Nc1ncnc2c1ncn2[C@@H]1O[C@H](COP(=O)(O)OP(=O)(O)OP(=O)(O)O)[C@@H](O)[C@H]1O` [ATP], binding at LnaB was characterised by a dissociation constant (Kd) of 15.4 ± 4.85 µM.

Values taken from paper PMC11251166 (Nature Communications, 2024).
